Experimental data: US12310364B2, “Safened compositions comprising pyridine carboxylate herbicides and cloquintocet” (Corteva Agriscience LLC, priority 2018, dated 2025)

Assays:
Format in all cases: in vivo
[1] = tested on: Avena sativa (common oat), AVESA; experiment: Greenhouse postemergence safening trial, visual injury on common oat; settings: safener alone 40 g/ha
Protocol: (§1) Greenhouse Trial Methodology-Evaluation of Postemergence Herbicidal […] in Crops […] When required to ensure good germination and healthy plants, a fungicide treatment and/or other chemical or physical treatment was applied. The plants were grown for 7-36 days (d) in a greenhouse with an approximate 14-hour (h) photoperiod which was maintained at about 23° C. during the day and 22° C. during the night. Nutrients and water were added on a regular basis and supplemental lighting was provided with overhead metal halide 1000-Watt lamps as necessary. The plants were employed for testing when they reached the second or third true leaf stage. Emulsifiable concentrates of each of each pyridine carboxylate herbicide (Compound A or Compound B) were prepared at 100 grams acid equivalent per liter (g ae/L). […] The concentrated stock solutions were further diluted with an aqueous mixture of 1.25% […] or MSO® Concentrate with LECI-TECH® to obtain stock solutions at reduced application rates for each herbicide. Spray solutions of the herbicide combinations (Compound A or Compound B plus safener) were prepared by adding weighed amounts or aliquots of the safener to the stock solutions of Compound A or Compound B to form 12-mL spray solutions in two-way combinations. […] Control plants were sprayed in the same manner with the solvent blank. All herbicide (component a) application rates are given as “g ae/ha” and all safener (component b) application rates are given as “g ai/ha.” The treated plants and control plants were placed in a greenhouse as described above and watered by sub-irrigation to prevent wash-off of the test compounds.

[2] = tested on: Hordeum vulgare (winter barley), HORVW; experiment: Greenhouse postemergence safening trial, visual injury on winter barley; settings: safener alone 40 g/ha
Protocol: as §1

[3] = tested on: Matricaria chamomilla (wild chamomile), MATCH; experiment: Greenhouse postemergence trial, visual injury on wild chamomile
Protocol: as §1

[4] = tested on: Triticum aestivum (winter wheat), TRZAW; experiment: Greenhouse postemergence safening trial, visual injury on winter wheat; settings: safener alone 40 g/ha
Protocol: as §1

[5] = tested on: Brassica napus (winter rape), BRSNW; experiment: Greenhouse postemergence trial, visual injury on winter rape
Protocol: as §1

[6] = tested on: Triticum aestivum (spring wheat), TRZAS; experiment: Greenhouse postemergence safening trial, visual injury on spring wheat
Protocol: as §1

[7] = tested on: Triticum aestivum (durum wheat), TRZDU; experiment: Greenhouse postemergence safening trial, visual injury on durum wheat; settings: safener alone 40 g/ha
Protocol: as §1

[8] = tested on: Salsola kali (Russian thistle), SASKR; experiment: Greenhouse postemergence trial, visual injury on Russian thistle
Protocol: as §1

[9] = tested on: Hordeum vulgare (spring barley), HORVS; experiment: Greenhouse postemergence safening trial, visual injury on spring barley
Protocol: as §1

CNC.O=C(O)COc1ccc(Cl)c2cccnc12 [CQC-DMA, cloquintocet-dimethylammonium salt]
0%: % visual injury, Ob [1] | % visual injury, Ob [2] | % visual injury, Ob ([3]; safener alone 10 g/ha) | % visual injury, Ob ([3]; safener alone 20 g/ha) | % visual injury, Ob ([3]; safener alone 40 g/ha) | % visual injury Δ [4] | % visual injury, Ob [4] | % visual injury, Ob ([5]; safener alone 10 g/ha) | % visual injury, Ob ([5]; safener alone 20 g/ha) | % visual injury, Ob ([5]; safener alone 40 g/ha) | % visual injury, Ob ([6]; safener alone 10 g/ha) | % visual injury, Ob ([6]; safener alone 20 g/ha) | % visual injury, Ob ([6]; safener alone 40 g/ha) | % visual injury, Ob [7] | % visual injury, Ob ([8]; safener alone 10 g/ha) | % visual injury, Ob ([8]; safener alone 20 g/ha) | % visual injury, Ob ([8]; safener alone 40 g/ha) | % visual injury, Ob ([9]; safener alone 10 g/ha) | % visual injury, Ob ([9]; safener alone 20 g/ha) | % visual injury, Ob ([9]; safener alone 40 g/ha)

CCN(CC)CC.O=C(O)COc1ccc(Cl)c2cccnc12 [CQC-TEA, cloquintocet-triethylamine salt]
0%: % visual injury, Ob [1] | % visual injury Δ [2] | % visual injury, Ob [2] | % visual injury, Ob ([3]; safener alone 10 g/ha) | % visual injury, Ob ([3]; safener alone 20 g/ha) | % visual injury, Ob ([3]; safener alone 40 g/ha) | % visual injury, Ob [4] | % visual injury, Ob ([5]; safener alone 10 g/ha) | % visual injury, Ob ([5]; safener alone 20 g/ha) | % visual injury, Ob ([5]; safener alone 40 g/ha) | % visual injury, Ob ([6]; safener alone 10 g/ha) | % visual injury, Ob ([6]; safener alone 20 g/ha) | % visual injury, Ob ([6]; safener alone 40 g/ha) | % visual injury, Ob [7] | % visual injury, Ob ([8]; safener alone 10 g/ha) | % visual injury, Ob ([8]; safener alone 20 g/ha) | % visual injury, Ob ([8]; safener alone 40 g/ha) | % visual injury, Ob ([9]; safener alone 10 g/ha) | % visual injury, Ob ([9]; safener alone 20 g/ha) | % visual injury, Ob ([9]; safener alone 40 g/ha)

CC(O)CN(CC(C)O)CC(C)O.O=C(O)COc1ccc(Cl)c2cccnc12 [CQC-TIPA, cloquintocet-triisopropanolamine salt]
0%: % visual injury, Ob ([3]; safener alone 10 g/ha) | % visual injury, Ob ([3]; safener alone 20 g/ha) | % visual injury, Ob ([3]; safener alone 40 g/ha) | % visual injury, Ob ([5]; safener alone 10 g/ha) | % visual injury, Ob ([5]; safener alone 20 g/ha) | % visual injury, Ob ([5]; safener alone 40 g/ha) | % visual injury, Ob ([6]; safener alone 10 g/ha) | % visual injury, Ob ([6]; safener alone 20 g/ha) | % visual injury, Ob ([6]; safener alone 40 g/ha) | % visual injury, Ob ([8]; safener alone 10 g/ha) | % visual injury, Ob ([8]; safener alone 20 g/ha) | % visual injury, Ob ([8]; safener alone 40 g/ha) | % visual injury, Ob ([9]; safener alone 10 g/ha) | % visual injury, Ob ([9]; safener alone 20 g/ha) | % visual injury, Ob ([9]; safener alone 40 g/ha)

COC(=O)COc1ccc(Cl)c2cccnc12 [CQC-methyl, cloquintocet-methyl]
0%: % visual injury, Ob ([3]; safener alone 10 g/ha) | % visual injury, Ob ([3]; safener alone 20 g/ha) | % visual injury, Ob ([3]; safener alone 40 g/ha) | % visual injury, Ob ([5]; safener alone 10 g/ha) | % visual injury, Ob ([5]; safener alone 20 g/ha) | % visual injury, Ob ([5]; safener alone 40 g/ha) | % visual injury, Ob ([6]; safener alone 10 g/ha) | % visual injury, Ob ([6]; safener alone 20 g/ha) | % visual injury, Ob ([6]; safener alone 40 g/ha) | % visual injury, Ob ([8]; safener alone 10 g/ha) | % visual injury, Ob ([8]; safener alone 20 g/ha) | % visual injury, Ob ([8]; safener alone 40 g/ha) | % visual injury, Ob ([9]; safener alone 10 g/ha) | % visual injury, Ob ([9]; safener alone 20 g/ha) | % visual injury, Ob ([9]; safener alone 40 g/ha)
